Here are results for 1 substance from patent US20160367623A1, “AGONISTS OF GUANYLATE CYCLASE USEFUL FOR THE TREATMENT OF GASTROINTESTINAL DISORDERS, INFLAMMATION, CANCER AND OTHER DISORDERS” (priority 2015, published 2016).

Bridge positions count the residues as written; N and C are the ends. Ends that are not written are not given here.

This assay concerns patients with chronic idiopathic constipation (CIC). Put plainly: First phase 3 CIC trial: stool consistency, Bristol Stool Form Scale (BSFS) change from baseline. It counts as in vivo, human. The note with it: for Change from Baseline in Stool Consistency, Difference from Placebo: overall 12-week; for Change from Baseline in Stool Consistency (BSFS), LS Mean (SE): overall average across the 12-week treatment period, ITT; for mean increase from baseline in BSFS score: placebo 0.77. From the text: Both trials include a two-week pre-treatment baseline period, a 12-week treatment period, and a two-week post-treatment period. The phase 3 CIC program was designed to support regulatory submission in the U. S.
Patients were selected using Rome 3 criteria modified for CIC and had (1) fewer than 3 defecations per week, (2) loose stools occurring rarely without laxatives, (3) inadequate criteria for irritable bowel syndrome with constipation (IBS-C), and (4) at least two of the following applied to at least 25% of defecations: (a) straining during evacuation, (b) lumpy or hard stools, (c) sensation of anorectal obstruction or blockage. Rome 3 requires patients to fulfill the criteria for the last 3 months with symptom onset at least 6 months prior to diagnosis.

For “Asn^1-Asp^2-Glu^3-Cys^4-Glu^5-Leu^6-Cys^7-Val^8-Asn^9-Val^10-Ala^11-Cys^12-Thr^13-Gly^14-Cys^15-Leu^16 (NDECELCVNVACTGCL; disulfide 4-12, 7-15) [Plecanatide, uroguanylin analogue, guanylate cyclase-C agonist; (C4:C12, C7:C15) bicycle peptide]”, the “Week 1 Change from Baseline in Stool Consistency, Difference from Placebo” value was 0.92 (3 mg) and 0.85 (6 mg). Besides, the “Week 1 Change from Baseline in Stool Consistency, LS Mean (SE)” value (3 mg) is 1.50 (0.071) and the “Week 1 Change from Baseline in Stool Consistency, LS Mean (SE)” value (6 mg) is reported as 1.42 (0.072). For the same substance, the “stool consistency after discontinuation of treatment” value (3.0 mg and 6.0 mg, post-treatment period) was “returned towards baseline with no indication of an exaggerated or rebound effect”. The “Week 1 Change from Baseline in Stool Consistency, Mean (SD)” value (shortened to “Week 1 Change from Baseline … (SD)”) (3 mg, n 414) is reported as 1.57 (1.563); the “Week 1 Change from Baseline … (SD)” value (6 mg, n 399) was 1.42 (1.640); the “Week 1 Change from Baseline … (SD)” value (Active Combined, n 813) is given as 1.49 (1.602). For the same substance, the “Change from Baseline in Stool Consistency, Difference from Placebo” value by setting is: (3 mg) 0.76; (6 mg) 0.75. Also, the “Change from Baseline in Stool Consistency (BSFS), LS Mean (SE)” value was 1.53 (0.058) (3 mg) and 1.52 (0.059) (6 mg). Besides, the “mean increase from baseline in BSFS score” value is, setting by setting: (3.0 mg) 1.53; (6.0 mg) 1.52.
